# Assay results: patent US8828987B2, “Pyridine amide derivatives as EP4 receptor antagonists” (Rottapharm Biotech S.R.L., priority 2010, dated 2014)
# Read-outs that look alike come from different tables or passages of the source.
# How the values were obtained:
# human EP4 receptor [1] = molecular target: T1, human EP4 receptor (Homo sapiens, UniProt P35408); experiment: cAMP assay (AlphaScreen) on human EP4 membrane of transfected cells, antagonism of PGE2; type: biochemical; conditions: HEK293 hEP4 cell membrane stimulated with PGE2 3 nM; read-out: functional IC50
# T1 construct: expressed in transfected cells; membrane fraction used
# Procedure, shortened: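 Membranes of HEK293 cells stably expressing human EP4 (1 μg/well) in HBSS/IBMX 0.5 mM/GTP/GDP/ATP buffer, pH 7.4, preincubated 30 min at 22-23 °C with compound plus PGE2 3 nM. cAMP quantified by AlphaScreen competition with biotinylated cAMP after 1 h. IC50 from cAMP standard curve by linear regression.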
# [2] = Pharmacokinetics in male Han Wistar rats, intravenous and oral; type: in vivo; conditions: rat; for AUC(0-inf) / AUC(0-t) / clearance / Vd / half-life / Cmax / Tmax / bioavailability: male, Han Wistar, plasma; for clearance: read-out: CLp* (converted); for Vd: read-out: Vss*; for half-life: read-out: t½* (converted); for bioavailability: po, read-out: F %
# Description: Determination of PK of the Invention Compounds
# The pharmacokinetics of compounds E10, E16, E34, E38, E51, were studied in male Han Wistar rats. The rats were treated intravenously and orally (n=3 for each dose route) with a compounds formulated as solutions. The rats were fitted with a jugular cannula for serial sampling. A full profile was acquired for each rat. Plasma extracts were quantitatively analyzed using a specific and sensitive LC-MS/MS bioanalytical method. Inter-individual variations between the three rats in each group were limited (CV for pharmacokinetic parameters was below 50%).
# human EP4 receptor [3] = molecular target: T1, human EP4 receptor; experiment: [3H]-Prostaglandin E2 membrane binding assay (human EP4/HEK293 transfectant membranes); conditions: [3H]-PGE2 1 nM, hEP4/HEK293 membranes; Ki by Cheng-Prusoff; read-out: Binding pKi (converted)
# Procedure, shortened: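 HEK293 membranes stably expressing human EP4 (10 µg protein) incubated with 1 nM [3H]-PGE2 in 10 mM MES-KOH pH 6, 10 mM MgCl2, 1 mM CaCl2, 90 min at room temperature; nonspecific binding with 1 µM PGE2. Filtration, scintillation counting; Ki via Cheng-Prusoff, reported as pKi; compounds tested 1 nM–1 µM.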
# T1 sequence (P35408 whole entry): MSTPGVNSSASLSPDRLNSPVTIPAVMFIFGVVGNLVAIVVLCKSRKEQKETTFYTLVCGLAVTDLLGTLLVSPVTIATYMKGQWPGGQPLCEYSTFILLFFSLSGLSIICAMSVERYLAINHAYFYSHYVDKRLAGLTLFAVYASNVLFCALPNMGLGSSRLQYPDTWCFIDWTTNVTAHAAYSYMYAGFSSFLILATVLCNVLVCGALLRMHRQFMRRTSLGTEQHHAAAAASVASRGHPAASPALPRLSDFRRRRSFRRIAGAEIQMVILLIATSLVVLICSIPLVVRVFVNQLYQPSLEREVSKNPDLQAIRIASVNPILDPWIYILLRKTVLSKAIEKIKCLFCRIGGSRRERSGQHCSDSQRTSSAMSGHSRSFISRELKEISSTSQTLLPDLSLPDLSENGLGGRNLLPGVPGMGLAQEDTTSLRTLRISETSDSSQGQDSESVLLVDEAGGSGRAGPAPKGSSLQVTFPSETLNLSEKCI
structure (smiles),measurement,setting,value
"O=C(O)c1ccc(C2(NC(=O)c3cc(Cl)cnc3N3CC(Oc4ccccc4)C3)CC2)cc1 [E 10, 4-(1-(5-chloro-2-(3-phenoxyazetidin-1-yl)nicotinamido)cyclopropyl)benzoic acid]",IC50,human EP4 receptor [1],46 nM
same,AUC(0-inf),"[2]; IV, 2.0 mg/kg",3150 ng·h/mL
same,AUC(0-t),"[2]; IV, 2.0 mg/kg",3090 ng·h/mL
same,clearance,"[2]; IV, 2.0 mg/kg",2.68 mL/min
same,Vd,"[2]; IV, 2.0 mg/kg",0.307 L
same,half-life,"[2]; IV, 2.0 mg/kg",3.96 h
same,AUC(0-inf),"[2]; PO, 2.0 mg/kg",1820 ng·h/mL
same,AUC(0-t),"[2]; PO, 2.0 mg/kg",1720 ng·h/mL
same,Cmax,"[2]; PO, 2.0 mg/kg",923 ng/mL
same,Tmax,"[2]; PO, 2.0 mg/kg",0.25 h
same,half-life,"[2]; PO, 2.0 mg/kg",4.85 h
same,bioavailability,"[2]; 2 mg/kg, PO, 2.0 mg/kg",56%
same,Tlast,"[2]; IV, 2.0 mg/kg",24 h
same,Tlast,"[2]; PO, 2.0 mg/kg",24 h
same,Ki,human EP4 receptor [3],15.8 nM
"Cc1cc(F)ccc1NC1CN(c2ncc(C(F)(F)F)cc2C(=O)NC2(c3ccc(C(=O)O)cc3)CC2)C1 [E 51, 4-(1-(2-(3-((4-fluoro-2-methylphenyl)amino)azetidin-1-yl)-5-(trifluoromethyl)nicotinamido)cyclopropyl)benzoic acid]",IC50,human EP4 receptor [1],28 nM
same,AUC(0-inf),"[2]; IV, 1.0 mg/kg",389 ng·h/mL
same,AUC(0-t),"[2]; IV, 1.0 mg/kg",385 ng·h/mL
same,clearance,"[2]; IV, 1.0 mg/kg",11.2 mL/min
same,Vd,"[2]; IV, 1.0 mg/kg",0.447 L
same,half-life,"[2]; IV, 1.0 mg/kg",1.12 h
same,AUC(0-inf),"[2]; PO, 1.0 mg/kg",231 ng·h/mL
same,AUC(0-t),"[2]; PO, 1.0 mg/kg",225 ng·h/mL
same,Cmax,"[2]; PO, 1.0 mg/kg",151 ng/mL
same,Tmax,"[2]; PO, 1.0 mg/kg",0.25 h
same,half-life,"[2]; PO, 1.0 mg/kg",1.14 h
same,bioavailability,"[2]; 1 mg/kg, PO, 1.0 mg/kg",58%
same,Tlast,"[2]; IV, 1.0 mg/kg",6 h
same,Tlast,"[2]; PO, 1.0 mg/kg",6 h
same,Ki,human EP4 receptor [3],6.31 nM
